The subject of data set [1] is Podosphaera xanthii. In words: Fungicidal activity against Podosphaera xanthii (powdery mildew) inoculated in inter-specific squash hybrid Strong tosa (Cucurbita moschata x Cucurbita maxima) rootstock seedlings for 7 days prior to drug application assessed as disease severity on lower surface areas of cotyledonsat 45% in 0.6 g/L applied once measured 7 days post-drug dose under greenhouse conditions (water rvb = 5.1%). The format is functional.

The subject of data set [2] is Cucurbita maxima x Cucurbita moschata. The experiment in a line: Phytotoxicity against inter-specific squash hybrid Cucurbita moschata x Cucurbita maxima (Strong tosa) rootstock seedlings. The format is organism-based. Conditions: in vivo.
For data set [3], the system named is Podosphaera xanthii. The experiment in a line: Fungicidal activity against Podosphaera xanthii (powdery mildew) inoculated in inter-specific squash hybrid Strong tosa (Cucurbita moschata x Cucurbita maxima) rootstock seedlings for 7 days prior to drug application assessed as incidence of disease symptoms on hypocotyls or upper or lower sides of cotyledons at 45% in 0.6 g/L applied once measured 7 days post-drug dose under greenhouse …. It is filed as functional.

Data set [4] concerns Podosphaera xanthii. In words: Fungicidal activity against Podosphaera xanthii (powdery mildew) inoculated in inter-specific squash hybrid Strong tosa (Cucurbita moschata x Cucurbita maxima) rootstock seedlings for 7 days prior to drug application assessed as disease severity at 45% in 0.6 g/L applied once measured 7 days post-drug dose under greenhouse conditions (water Rvb = 17.5%). The format is functional.

For the next data set, the system named is Lagenaria siceraria. The experiment in a line: Phytotoxicity against Lagenaria siceraria 'Emphasis' rootstock seedlings. Conditions: in vivo. It is filed as organism-based.
In data set [5] the test system is Podosphaera xanthii. The experiment in a line: Fungicidal activity against Podosphaera xanthii (powdery mildew) inoculated in inter-specific squash hybrid Strong tosa (Cucurbita moschata x Cucurbita maxima) rootstock seedlings for 7 days prior to drug application assessed as disease severity on upper surface areas of cotyledonsat 45% in 0.6 g/L applied once measured 7 days post-drug dose under greenhouse conditions (water Rvb = 10.2%). It is filed as functional.

Data set [6] deals with Podosphaera xanthii. The experiment in a line: Fungicidal activity against Podosphaera xanthii (powdery mildew) inoculated in squash (Cucurbita pepo) rootstock seedlings continuously after first drug application assessed as incidence of disease symptoms on hypocotyls or upper or lower sides of cotyledons at 45% in 0.6 g/L applied thrice at 5-days intervals measured 5 days after third application under green house conditions (water Rvb = …. The format is functional.

Data set [7] relates to Podosphaera xanthii. In words: Fungicidal activity against Podosphaera xanthii (powdery mildew) inoculated in squash (Cucurbita pepo) rootstock seedlings continuously after first drug application assessed as disease severity at 45% in 0.6 g/L applied thrice at 5-days intervals measured 5 days after third application under green house conditions (water Rvb = 3.9%). The format is functional.

The structures appear in SMILES notation.

Take `COC(=O)NC(=S)Nc1ccccc1NC(=S)NC(=O)OC` [THIOPHANATE METHYL]: the Activity is 3% in the data set on Podosphaera xanthii [1]; “Non-toxic” in data set [2]; 85.4% with Podosphaera xanthii [3]; 7.4% in the data set on Podosphaera xanthii [4]; “Non-toxic” in the data set on Lagenaria siceraria; 3.9% with Podosphaera xanthii [5]. Besides, the Activity is on record as 90.8% with Podosphaera xanthii [6] and 3.2% in the data set on Podosphaera xanthii [7].

These data come from ChEMBL document CHEMBL3044926, “Controlling powdery mildew on cucurbit rootstock seedlings in the greenhouse with fungicides and biofungicides” (Crop Prot, 2012).
